According to US20200375929A1, “METHODS AND COMPOSITIONS FOR THE TREATMENT OF DISEASES ASSOCIATED WITH CANCER, INFLAMMATION, OR IMMUNE RESPONSE” (Washington University, priority 2017, published 2020):
Entries after “also recorded” stand apart in the source; their conditions may differ.

Key:
[1] = biological target: T1, SDH (Mus musculus, UniProt Q8K2B3); experiment: SDH activity in mouse heart and liver; type: in vivo; conditions: daily DI administration i.p.
T1 construct: from tissue; host or cells: mitochondria isolated from mouse heart and liver
Experimental: DI was administered to mice via the intraperitoneal route at 20 mg/500 μL sterile PBS per mouse either once per day for total length of 4 days (DI daily) or every 2 h, 3 times in total (DI overdose). In daily DI administration, last injection was 6 h before the tissue harvest, in DI overdose protocol last injection was 2 h before harvest. Mice were euthanized and heart (50 mg) and liver tissue (200 mg) were harvested, washed in PBS and processed for mitochondria isolation with Mitochondria Isolation Kit for Tissue (#89801, Thermo Scientific) according to manufacturer's instruction. For analysis of mitochondria purity cytoplasmic and mitochondrial fractions were diluted with reducing sample buffer and analyzed by western blot for SDH and GAPDH presence (see western blot analysis section). SDH activity in isolated mitochondria was analyzed using SDH Activity Colorimetric Kit (#MAK197, Sigma). Isolated mitochondria were directly resuspended in SDH Assay Buffer. In parallel, protein concentration in each sample was determined using RC/DC™ Protein Assay (Biorad) and activity was normalized to protein concentration.

[2] = test system: NFkB pathway; experiment: Canonical NFkB signaling in LPS-stimulated BMDMs (p65 translocation, IKK, IkBa); type: cell-based, mouse
Experimental: (§1) BMDM were prepared from 6- to 12-week-old mice as described 1 and cultured in RMPI-1640 medium supplemented with 10% fetal bovine serum (FBS), 2 mM L-glutamine, and 100 U/mL penicillin-streptomycin and mouse recombinant M-CSF ([…], Peprotech). For experiments, cells were seeded at concentration 10^6 cells/mL in tissue culture plates of various formats. The cells were treated with DI (250 μM (unless stated otherwise), cat #592498, Sigma), DMF (50 μM (unless stated otherwise), cat #242926, Sigma), 3-(ethoxycarbonyl)but-3-enoic acid (3MI, 5 μM, Aris Pharmaceuticals Inc.), 4-ethoxy-2-methylene-4-oxobutanoic acid (MI, Aris Pharmaceuticals Inc.) for 12 h and activated with lipopolysaccharide (LPS; 100 ng/mL; E. coli 0111:B4, Sigma) for 1 h or as indicated. In some experiments cells were stimulated with combination of LPS (20 ng/mL) and IFN-γ (50 ng/mL; Peprotech). In some experiments cells were treated with α-tocopherol (AT, 10 μM; Sigma), MitoTEMPO (MT, 500 μM; Sigma), N-acetylcysteine (NAC, 1 mM, Sigma), ethylester of GSH (EtGSH; 1 mM, Santa Cruz) or buthionene sulfoximine (BSO, 500 μM, Sigma) alone or in combination with DI for 12 h. […]
Cells were lysed in RIPA Lysis Buffer System (Santa Cruz) and heat-denatured at 95° C. for 5 min in reducing sample buffer (BioRad). […] Non-specific binding was blocked with 5% skim milk (or 5% BSA when phospho-proteins were analyzed), and membranes were probed with primary antibodies specific to Nrf2 (#12721), HO-1 (#70081), IκBζ (mouse specific, #93726), IκBζ(#9244), ATF3 (#D2Y5W), IRAK1 (#4504; sensitivity of IRAK1 detection diminishes upon IRAK1 K63 ubiquitination), phospho-IKK (Ser176/180, #2697), p62/SQSTM1 (#5114), phospho-eIF2α (Ser51, #9721), eIF2α (#5324) from Cell Signaling; GAPDH (sc-25778), IκBα (sc-1643), ATF3 (sc-188), SDHA (sc-166909) from Santa Cruz; NQO1 (ab28947) from Abeam, followed by incubation with anti-rabbit-HRP (1:10,000; sc-2030) or anti-mouse-HRP (1:10,000; sc-2031) from Santa Cruz and Clarity western ECL substrate (Bio-Rad). […]

[3] = test system: Nfkbiz mRNA; experiment: Nfkbiz (Ikb-ζ) mRNA expression in BMDMs (qPCR); type: cell-based, mouse; conditions: DI 12 h, then LPS
Experimental: as §1
RNA from cultured cells was isolated using a Total RNA I kit (OMEGA). […] Threshold cycle (CT) values for each sample were determined by automated threshold analysis. […]

T1 sequence (Q8K2B3 43-664): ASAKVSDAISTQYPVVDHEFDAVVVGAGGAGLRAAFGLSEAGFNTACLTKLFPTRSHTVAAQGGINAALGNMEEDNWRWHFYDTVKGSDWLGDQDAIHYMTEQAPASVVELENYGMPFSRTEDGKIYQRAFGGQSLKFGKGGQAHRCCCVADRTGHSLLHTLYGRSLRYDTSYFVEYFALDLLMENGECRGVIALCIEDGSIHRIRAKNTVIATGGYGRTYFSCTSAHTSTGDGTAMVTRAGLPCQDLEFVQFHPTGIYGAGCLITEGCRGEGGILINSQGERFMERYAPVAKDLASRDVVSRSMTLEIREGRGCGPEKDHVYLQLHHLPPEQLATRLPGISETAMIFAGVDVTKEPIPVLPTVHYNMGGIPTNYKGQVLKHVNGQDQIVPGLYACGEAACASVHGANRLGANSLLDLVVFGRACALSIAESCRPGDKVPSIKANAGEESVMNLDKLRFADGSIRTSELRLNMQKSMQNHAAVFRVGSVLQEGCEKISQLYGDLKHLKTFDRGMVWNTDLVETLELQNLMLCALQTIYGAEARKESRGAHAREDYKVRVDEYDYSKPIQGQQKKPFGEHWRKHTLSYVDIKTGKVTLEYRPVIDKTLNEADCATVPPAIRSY
T1 sequence (Q9CQA3 31-282 partner): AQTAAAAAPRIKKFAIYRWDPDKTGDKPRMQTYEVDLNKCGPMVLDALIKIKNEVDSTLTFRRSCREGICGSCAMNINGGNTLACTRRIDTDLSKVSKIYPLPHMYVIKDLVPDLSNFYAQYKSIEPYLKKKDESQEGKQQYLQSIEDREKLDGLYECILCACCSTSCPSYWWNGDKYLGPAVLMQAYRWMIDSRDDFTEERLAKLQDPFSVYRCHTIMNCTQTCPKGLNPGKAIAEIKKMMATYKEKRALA
T1 sequence (Q9CZB0 30-169 partner): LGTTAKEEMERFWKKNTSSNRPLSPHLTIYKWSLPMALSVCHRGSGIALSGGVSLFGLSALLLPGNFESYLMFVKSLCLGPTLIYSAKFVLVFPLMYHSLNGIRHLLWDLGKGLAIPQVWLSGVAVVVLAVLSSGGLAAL
T1 sequence (Q9CXV1 57-159 partner): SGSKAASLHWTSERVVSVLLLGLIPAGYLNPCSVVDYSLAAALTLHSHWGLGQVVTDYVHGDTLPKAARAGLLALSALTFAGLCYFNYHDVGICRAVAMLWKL

C=C(CC(=O)OC)C(=O)OC [DI, dimethyl itaconate]
SDH activity in heart and liver [1]: did not significantly affect SDH activity
p65 nuclear translocation upon LPS ([2]; BMDMs, DI 250 μM 12 h, LPS): does not inhibit nuclear translocation of p65; also recorded: nor did it prevent LPS-mediated p65 nuclear translocation
IκBα degradation in response to LPS ([2]; BMDMs, DI, LPS): did not inhibit IκBα degradation
canonical NFkB response ([2]; DI at concentrations effective to inhibit IL6, p65 translocation, IKK activation, IkBa degradation): not affected
Ikb-ζ (Nfkbiz) mRNA level [3]: only moderate effect; also recorded: not changed
